Test results: patent US8007782B2, “Combination bacteriolytic therapy for the treatment of tumors” (priority 2003, dated 2011)

How the values were obtained:
[1] = tested on: HCT116 human colorectal cancer cells; experiment: Tumorigenicity assay, HCT116 xenografts in nude mice; assay type: in vivo; details: for Effect with C. novyi-NT / Effect alone: nude mice; for Effect alone: agent alone
Source text: (§1) All animal protocols were designed in accordance with the Guide for the Care and Use of Laboratory Animals (NIH Publication 86-23) and were approved by the Johns Hopkins University Institutional Animal Care and Use Committee. Six to eight week old mice were implanted subcutaneously on one flank with 3 to 6 million cancer cells. Establishment of tumors of 150 to 500 mm3 took 8 to 21 days, depending on the cell type. C. novyi-NT spores (300×106) and anti-microtubule agents were generally administered by a single intravenous injection through the tail vein in a total volume of 300 to 500 ul phosphate-buffered saline (PBS). Quantitative assessment of tumor growth was performed by measuring subcutaneous tumor grafts (major and minor axis) using electronic calipers. Tumor volume was calculated using the equation: length×width2×0.5. Progression free survival was defined as the length of time following treatment before any increase in tumor volume was observed. Mice were considered “cured” if no tumor was evident three months after treatment. Animals were weighed at least twice a week and carefully observed for signs of toxicity every day for the first week following treatment and then twice a week thereafter. At least five mice were used for each treatment arm described in the Experimental Results.
The timing, route, and dose of agents are critical for the success of any experimental therapy. When two agents are combined, the number of variables that must be tested increases exponentially. To simplify interpretation of the comparisons between various anti-microtubule agents, pilot studies with representative drugs were performed.
Eighteen agents known to interact with microtubules were each tested in this manner in nude mice harboring xenografts of HCT116 human colorectal cancer cells. At least five mice harboring tumors of 150 to 500 mm3 in size were used for each experimental arm. Two classes of responses were noted. One type of response was characterized by a rapid hemorrhagic necrosis, observed only with agents that inhibited microtubule […] (FIG. 1A, B). The other type of response was characterized by a slow regression, observed with agents that stabilized microtubules (FIG. 2A, B).

Weight loss after COBALT = assay type: in vivo, nude mice; details: maximum average weight loss relative to weight one day prior to treatment, HCT116 xenografts
Source text: as §1
(§2) This toxicity was observed only when the combination of C. novyi-NT spores and the drugs was administered and not with either the bacteria or the drugs alone. […] Though major tumor regressions were common, few mice died as a result of therapy (Table 2) No deaths occurred after treatment with the microtubule stabilizers plus C. novyi-NT, while 4% to 8% of mice treated with microtubule destabilizers plus C. novyi-NT died. The only other toxicity observed was transient weight loss (Table 3). Mice treated with the drugs alone lost ˜5 to 10% of their body weight within 7 days, while weight loss after treatment with C. novyi-NT plus these drugs varied from 8% to 18%. All weights recovered to pre-treatment levels within two weeks.

[2] = Mortality following COBALT; assay type: in vivo, nude mice; details: deaths within one week, pooled xenograft models
Source text: as §1, §2

[3] = tested on: HuCC-T1 cholangiocarcinoma; experiment: Tumorigenicity assay, HuCC-T1 xenografts; assay type: in vivo, nude mice
Source text: as §1
We next evaluated the responses to COBALT/HTI-286 in other murine tumor models. […]

[4] = tested on: tumor blood flow in HCT116 xenografts; experiment: Assessment of blood perfusion (Hoechst 33342) in HCT116 xenografts; assay type: in vivo, mice; details: HTI-286 1.7 mg/kg or docetaxel 50 mg/kg iv, 3 and 24 hr after treatment
Procedure: Three or 24 hours after treatment, mice were intravenously injected with Hoechst 33342 (40 mg/kg) and euthanized two minutes later. Tumors were cryosectioned and viewed by fluorescence microscopy after counter-staining with acridine orange (AO). Endothelial cells are stained blue when they have taken up the Hoechst 33342 dye. Adjacent sections were stained with MECA-32 monoclonal antibody, a vascular endothelium-specific marker. Arrows point towards normal blood vessels unaffected by HTI-286 treatment in overlying skin.
Mice bearing HCT116 xenografts of 300 to 500 mm3 were injected intravenously with anti-microtubule agents. At various times thereafter, they were intravenously injected with Hoechst 33342 (40 mg/kg), then euthanized two minutes later by CO2 narcosis. Tumors were fixed in Tissue-Tek OTC compound (Sakura Finetek, Torrance, Calif.) and stored at −80° C. Frozen sections 10 microns in thickness were prepared with a Leica Microsystems cryostat and counterstained with acridine orange, 7.5 ug/ml, in PBS for 5 minutes. […] At least three sections of each of three tumors, representing middle and distal parts of the tumor, were examined under fluorescence microscopy for each agent tested, and representative results are illustrated in the figures. […]

[5] = tested on: Glucose Transporter-1 (Glut-1); experiment: Immunohistochemistry for Glut-1 (hypoxia marker) in HCT116 xenografts; assay type: in vivo, mice; details: HTI-286 1.7 mg/kg or docetaxel 50 mg/kg iv, 6 hr after treatment
Procedure: Mice were euthanized six hours after treatment. Tumors were sectioned and H & E stained. Adjacent sections were stained for Glut-1 expression, a marker for hypoxia. Cells positive for Glut-1 appear brown. Arrows indicate examples of hemorrhage.
Paraffin sections were deparaffinized, incubated with proteinase K (Invitrogen), heated at 95° C. for 20 min in citrate buffer (pH 6), and treated with peroxidase blocking reagent (Dako). Sections were incubated with a monoclonal antibody against Glucose Transporter-1 (Glut-1, Dako) followed by a biotin-conjugated secondary antibody (Pierce). A third layer consisting of HRP-conjugated anti-biotin (DAKO) was followed by diaminobenzidine (Sigma) staining. Sections were counterstained with eosin.
Two independent tests of this hypothesis were performed. First, we directly assessed hypoxia within tumors by staining with an antibody to Glucose Transporter-1 (Glut-1). Glut-1 has been extensively studied and shown to be specifically expressed only in hypoxic regions (Airley et al., 2001).

C. novyi-NT = experiment: Quantification of C. novyi-NT in tumors by real-time PCR; assay type: in vivo, C. novyi-NT in mice bearing HCT116 xenografts; details: versus spores without drug; HCT116 xenografts; SD printed +/−0.08 (HTI-286), +/−0.3 (docetaxel)
Procedure: Mice bearing HCT116 xenografts were treated with C. novyi-NT spores with or without HTI-286 (1.7 mg/kg) as described above. Following euthanasia 24-48 hr later, tumors were harvested, weighed, minced, and Dounce-homogenized. Genomic DNA was isolated using the Qiagen Genomic DNA Buffer Set and Genomic-tip 100/G. 25 ng of DNA was used in a PCR using the conditions described in (Vogelstein and Kinzler, 1999) The following primers specific for the C. novyi-NT phospholipase C gene were used: 5′-[…] (SEQ ID NO:1) and 5′-[…] (SEQ ID NO:2). No detectable primer dimers formed and no nonspecific amplification of mouse or xenograft genomic DNA occurred with these primers and PCR conditions. Real-time PCR was performed using an iCycler, and threshold cycle numbers were calculated using the iCycler Optical system interface software (Bio-Rad Lab, Hercules, Calif.). Averages of the threshold cycle number (Ct) of triplicate measurements per tumor were obtained, and three different tumors were studied for each treatment group. The results were expressed as the difference between the Ct of the treated tumor and the Ct of untreated controls, normalized to tumor weight.
Second, we directly tested the size of bacterial populations within tumors by measuring the number of bacteria at various times following intravenous injection of C. novyi-NT spores into mice bearing HCT116 xenografts. […]

[6] = 50 mg/kg × 1 (iv) with 3×108 C. novyi-NT spores iv

CCC(=O)O[C@H]1C[C@H]2OC[C@@]2(OC(C)=O)[C@H]2[C@H](OC(=O)c3ccccc3)[C@]3(O)C[C@H](OC(=O)[C@H](O)[C@@H](NC(=O)OC(C)(C)C)c4ccco4)C(C)=C([C@@H](O)C(=O)[C@]12C)C3(C)C [MAC-321, 5β,20-epoxy-1,2α-,4-,7β-,10β-,13α-hexahydroxytax-11-en-9-one 4 acetate 2 benzoate 7 propionate 13-ester with (2R,3S)—N-tertbutoxycarbonyl-3-(2-furyl)isoserine]
Effect with C. novyi-NT ([1]; 10 mg/kg × 1 (iv) with 3×108 C. novyi-NT spores iv): ++ (10% to 50% shrinkage in tumor volume relative to pre-treatment size)
Effect with C. novyi-NT ([1]; 45 mg/kg × 1 (iv) with 3×108 C. novyi-NT spores iv): ++++ (>20% cures)
Effect with C. novyi-NT [1, 6]: ++++ (>20% cures)
Effect with C. novyi-NT ([1]; 60 mg/kg × 1 (iv) with 3×108 C. novyi-NT spores iv): ++++ (>20% cures)
Effect with C. novyi-NT ([1]; 70 mg/kg × 1 (iv) with 3×108 C. novyi-NT spores iv): ++++ (>20% cures)
Effect alone ([1]; 10 mg/kg × 1 (iv)): +
Effect alone ([1]; 45 mg/kg × 1 (iv)): +++ (>50% shrinkage in tumor volume relative to pre-treatment size)
Effect alone ([1]; 50 mg/kg × 1 (iv)): +++ (>50% shrinkage in tumor volume relative to pre-treatment size)
Effect alone ([1]; 60 mg/kg × 1 (iv)): +++ (>50% shrinkage in tumor volume relative to pre-treatment size)
Effect alone ([1]; 70 mg/kg × 1 (iv)): +++ (>50% shrinkage in tumor volume relative to pre-treatment size)
mice cured (in words) ([1]; cured = no tumor evident three months after treatment): no mice
Weight Loss (%) (Weight loss after COBALT; drug dose 60.0 mg/kg): 5.5%
# dead (treatment-related deaths) ([2]; drug dose 45.0 mg/kg): 0
# dead (treatment-related deaths) ([2]; drug dose 50.0 mg/kg): 0
# dead (treatment-related deaths) ([2]; drug dose 60.0 mg/kg): 0
# dead (treatment-related deaths) ([2]; drug dose 70.0 mg/kg): 0
mice cured (number of mice) [3]: one of eight

CC(=O)O[C@@]12CO[C@@H]1C[C@H](O)[C@@]1(C)C(=O)[C@H](O)C3=C(C)[C@@H](OC(=O)[C@H](O)[C@@H](NC(=O)OC(C)(C)C)c4ccccc4)C[C@@](O)([C@@H](OC(=O)c4ccccc4)[C@H]21)C3(C)C [docetaxel]
Effect with C. novyi-NT ([1]; 12.5 mg/kg × 1 (iv) with 3×108 C. novyi-NT spores iv): ++ (10% to 50% shrinkage in tumor volume relative to pre-treatment size)
Effect with C. novyi-NT ([1]; 25 mg/kg × 1 (iv) with 3×108 C. novyi-NT spores iv): +++ (>50% shrinkage in tumor volume relative to pre-treatment size)
Effect with C. novyi-NT [1, 6]: ++++ (>20% cures)
Effect with C. novyi-NT ([1]; 75 mg/kg × 1 (iv) with 3×108 C. novyi-NT spores iv): ++++ (>20% cures)
Effect alone ([1]; 12.5 mg/kg × 1 (iv)): +
Effect alone ([1]; 25 mg/kg × 1 (iv)): ++ (10% to 50% shrinkage in tumor volume relative to pre-treatment size)
Effect alone ([1]; 50 mg/kg × 1 (iv)): ++++ (>20% cures)
Effect alone ([1]; 75 mg/kg × 1 (iv)): +++ (>50% shrinkage in tumor volume relative to pre-treatment size)
blood flow to the tumors (Hoechst 33342 labelling) [4]: no observable effects
Weight Loss (%) (Weight loss after COBALT; drug dose 50.0 mg/kg): 11.0%
# dead (treatment-related deaths) ([2]; drug dose 25.0 mg/kg): 0
# dead (treatment-related deaths) ([2]; drug dose 50.0 mg/kg): 0
# dead (treatment-related deaths) ([2]; drug dose 75.0 mg/kg): 0
Glut-1 expression (hypoxia marker) in tumors [5]: No increase
increase in number of C. novyi-NT bacteria in tumor when co-injected with drug (C. novyi-NT): 1.6 fold
